From article PMC4503722, “Novel Phenotypic Outcomes Identified for a Public Collection of Approved Drugs from a Publicly Accessible Panel of Assays” (PLoS ONE, 2015)

Key:
SNU-C1 = experiment: cells; format: cell-based; settings: assay number 30
[1] = tested on: endothelial tube formation in co-cultures of ECFCs and ADSCs treated with VEGF; experiment: cells; format: cell-based, human
RKO = experiment: cells; format: cell-based; settings: assay number 29
HT-29 = experiment: cells; format: cell-based; settings: assay number 28
[2] = tested on: alkaline phosphatase (ALP) activity in C2C12 cells; format: cell-based; settings: assay number 6; concentration response
NCI-H716 cells = experiment: cells; format: cell-based, Human; settings: assay number 12
Colo320 = experiment: cells; format: cell-based; settings: assay number 27
DLD-1 = experiment: cells; format: cell-based; settings: assay number 23
STC-1 cell line = format: cell-based, mouse; settings: assay number 13
[3] = tested on: ECFC/ADSC co-culture cell nuclei number
HCT116 = experiment: cells; format: cell-based; settings: assay number 25; basal
[4] = tested on: nuclear β-catenin in C2C12 cells; experiment: cells; format: cell-based; settings: assay number 5; concentration response
[5] = tested on: HCT116 cells treated with a GSK3β inhibitor; experiment: cells; format: cell-based; settings: assay number 26; GSK3b inhibitor pretreated
SW480 = experiment: cells; format: cell-based; settings: assay number 24
hKDR = target: T1, hKDR (Homo sapiens, UniProt P35968); experiment: Cerep LANCE kinase assay hKDR (S1 assay 32); format: biochemical; settings: assay number 32
T1 construct: purchased Cerep (LANCE kinase assay platform, contract assay)

hJAK2 = target: T2, hJAK2 (Homo sapiens, UniProt O60674); experiment: Cerep LANCE kinase assay hJAK2 (S1 assay 33); format: biochemical; settings: assay number 33
T2 construct: purchased Cerep (LANCE kinase assay platform, contract assay)

hp70S6K1 (RPS6KB1) = target: T3, hp70S6K1 (RPS6KB1) (Homo sapiens, UniProt P23443); experiment: Cerep LANCE kinase assay hp70S6K1 (S1 assay 31); format: biochemical; settings: assay number 31
T3 construct: purchased Cerep (LANCE kinase assay platform, contract assay)

hGSK3b = target: T4, hGSK3b (Homo sapiens, UniProt P49841); experiment: Cerep LANCE kinase assay hGSK3b (S1 assay 34); format: biochemical; settings: assay number 34
T4 construct: purchased Cerep (LANCE kinase assay platform, contract assay)

hFLT3 = target: T5, hFLT3 (Homo sapiens, UniProt P36888); experiment: Cerep LANCE kinase assay hFLT3 (S1 assay 35); format: biochemical; settings: assay number 35
T5 construct: purchased Cerep (LANCE kinase assay platform, contract assay)

HeLa cells = experiment: cells; format: cell-based; settings: for Hela CellCycMod PI 2N IC50/EC50: assay number 14; for Hela CellCycMod PI S Phase IC50/EC50: assay number 15; for Hela CellCycMod PI 4N IC50/EC50: assay number 16; for Hela CellCycMod PI MI IC50/EC50: assay number 17; for Hela CellCycMod PI Cell Number IC50/EC50: assay number 18

T2 sequence (O60674 whole entry): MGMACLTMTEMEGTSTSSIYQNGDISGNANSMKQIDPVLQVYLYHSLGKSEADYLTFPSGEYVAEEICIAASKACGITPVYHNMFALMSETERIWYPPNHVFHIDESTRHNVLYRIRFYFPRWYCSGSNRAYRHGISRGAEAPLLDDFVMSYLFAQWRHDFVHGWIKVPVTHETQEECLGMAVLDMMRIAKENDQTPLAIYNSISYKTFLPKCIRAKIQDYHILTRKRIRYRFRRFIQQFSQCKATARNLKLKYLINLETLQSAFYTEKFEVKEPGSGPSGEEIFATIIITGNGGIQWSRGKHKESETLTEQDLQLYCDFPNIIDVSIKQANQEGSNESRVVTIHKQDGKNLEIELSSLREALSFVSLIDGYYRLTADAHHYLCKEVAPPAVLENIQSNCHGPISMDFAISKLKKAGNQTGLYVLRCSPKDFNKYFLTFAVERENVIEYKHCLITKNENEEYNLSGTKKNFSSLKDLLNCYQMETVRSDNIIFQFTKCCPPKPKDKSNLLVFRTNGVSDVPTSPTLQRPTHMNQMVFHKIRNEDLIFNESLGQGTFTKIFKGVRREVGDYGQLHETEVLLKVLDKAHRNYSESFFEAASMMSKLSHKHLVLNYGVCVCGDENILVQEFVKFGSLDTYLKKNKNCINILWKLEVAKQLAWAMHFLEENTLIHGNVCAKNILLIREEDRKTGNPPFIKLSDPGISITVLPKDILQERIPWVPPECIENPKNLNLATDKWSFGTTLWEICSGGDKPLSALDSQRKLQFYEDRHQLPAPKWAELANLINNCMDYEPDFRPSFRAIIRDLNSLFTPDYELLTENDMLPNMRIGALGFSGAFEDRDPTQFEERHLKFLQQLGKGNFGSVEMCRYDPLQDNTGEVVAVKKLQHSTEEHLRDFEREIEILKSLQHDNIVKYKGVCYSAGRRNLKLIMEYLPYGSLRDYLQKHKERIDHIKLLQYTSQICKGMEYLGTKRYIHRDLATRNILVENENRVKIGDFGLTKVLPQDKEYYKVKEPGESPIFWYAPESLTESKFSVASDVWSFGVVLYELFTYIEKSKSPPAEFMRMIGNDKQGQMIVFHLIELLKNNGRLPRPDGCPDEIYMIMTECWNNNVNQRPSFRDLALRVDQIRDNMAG
T1 sequence (P35968 20-1356): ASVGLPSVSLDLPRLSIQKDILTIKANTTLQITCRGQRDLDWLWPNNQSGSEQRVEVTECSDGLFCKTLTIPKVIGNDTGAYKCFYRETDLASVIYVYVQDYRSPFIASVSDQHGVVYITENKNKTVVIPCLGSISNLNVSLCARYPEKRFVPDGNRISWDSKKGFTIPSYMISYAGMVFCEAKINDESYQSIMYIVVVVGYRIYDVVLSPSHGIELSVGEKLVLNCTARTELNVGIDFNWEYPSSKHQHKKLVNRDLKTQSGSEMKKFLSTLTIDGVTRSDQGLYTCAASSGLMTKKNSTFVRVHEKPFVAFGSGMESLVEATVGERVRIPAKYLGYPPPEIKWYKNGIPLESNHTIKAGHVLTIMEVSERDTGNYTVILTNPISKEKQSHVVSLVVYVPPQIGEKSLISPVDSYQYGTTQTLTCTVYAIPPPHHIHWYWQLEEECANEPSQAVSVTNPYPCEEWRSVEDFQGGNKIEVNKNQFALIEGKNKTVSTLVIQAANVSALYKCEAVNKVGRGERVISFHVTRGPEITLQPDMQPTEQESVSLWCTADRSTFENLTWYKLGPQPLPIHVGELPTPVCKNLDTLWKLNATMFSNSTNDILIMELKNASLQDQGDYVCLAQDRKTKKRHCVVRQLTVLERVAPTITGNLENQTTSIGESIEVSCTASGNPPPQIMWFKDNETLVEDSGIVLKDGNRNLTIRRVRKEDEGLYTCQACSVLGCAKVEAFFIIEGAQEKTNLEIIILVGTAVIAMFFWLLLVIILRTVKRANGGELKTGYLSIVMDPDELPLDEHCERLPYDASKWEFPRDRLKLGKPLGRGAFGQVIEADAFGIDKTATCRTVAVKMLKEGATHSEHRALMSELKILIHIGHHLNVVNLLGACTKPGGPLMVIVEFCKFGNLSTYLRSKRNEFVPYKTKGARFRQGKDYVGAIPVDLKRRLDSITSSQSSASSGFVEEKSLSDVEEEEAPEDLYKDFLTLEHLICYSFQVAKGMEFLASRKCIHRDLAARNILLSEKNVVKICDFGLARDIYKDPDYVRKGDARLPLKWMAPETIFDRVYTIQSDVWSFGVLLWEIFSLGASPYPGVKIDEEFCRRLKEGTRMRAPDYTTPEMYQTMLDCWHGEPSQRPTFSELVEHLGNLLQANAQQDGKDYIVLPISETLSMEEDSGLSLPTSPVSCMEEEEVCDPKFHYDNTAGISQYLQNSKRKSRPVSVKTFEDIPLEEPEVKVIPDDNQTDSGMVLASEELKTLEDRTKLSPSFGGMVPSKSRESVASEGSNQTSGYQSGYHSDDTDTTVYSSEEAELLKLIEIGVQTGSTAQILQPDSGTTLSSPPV
T5 sequence (P36888 27-993): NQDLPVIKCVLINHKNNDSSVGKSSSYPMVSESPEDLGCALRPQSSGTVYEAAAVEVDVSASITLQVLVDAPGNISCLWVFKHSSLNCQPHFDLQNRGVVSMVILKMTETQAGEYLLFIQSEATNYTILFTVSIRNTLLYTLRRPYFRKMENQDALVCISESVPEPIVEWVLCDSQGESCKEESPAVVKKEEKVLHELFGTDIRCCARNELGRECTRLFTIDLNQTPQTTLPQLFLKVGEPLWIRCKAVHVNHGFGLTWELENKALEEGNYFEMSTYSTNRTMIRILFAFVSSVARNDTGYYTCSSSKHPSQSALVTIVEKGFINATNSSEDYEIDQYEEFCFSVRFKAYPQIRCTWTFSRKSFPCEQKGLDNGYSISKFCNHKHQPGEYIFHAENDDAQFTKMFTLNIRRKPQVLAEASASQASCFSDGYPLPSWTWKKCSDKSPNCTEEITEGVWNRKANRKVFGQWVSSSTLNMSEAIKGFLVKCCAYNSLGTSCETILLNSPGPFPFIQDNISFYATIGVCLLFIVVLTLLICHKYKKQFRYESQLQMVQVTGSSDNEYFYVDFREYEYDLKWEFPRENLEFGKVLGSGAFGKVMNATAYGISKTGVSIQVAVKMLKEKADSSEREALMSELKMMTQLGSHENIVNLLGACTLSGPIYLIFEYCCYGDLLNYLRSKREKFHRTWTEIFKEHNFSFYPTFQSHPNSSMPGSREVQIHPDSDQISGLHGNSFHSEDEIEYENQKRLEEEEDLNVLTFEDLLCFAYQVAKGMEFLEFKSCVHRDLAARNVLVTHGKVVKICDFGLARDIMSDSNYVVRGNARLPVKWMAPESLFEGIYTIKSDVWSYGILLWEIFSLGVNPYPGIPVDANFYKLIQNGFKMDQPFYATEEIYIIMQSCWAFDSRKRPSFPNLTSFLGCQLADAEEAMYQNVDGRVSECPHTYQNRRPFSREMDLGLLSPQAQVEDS
T3 sequence (P23443 whole entry): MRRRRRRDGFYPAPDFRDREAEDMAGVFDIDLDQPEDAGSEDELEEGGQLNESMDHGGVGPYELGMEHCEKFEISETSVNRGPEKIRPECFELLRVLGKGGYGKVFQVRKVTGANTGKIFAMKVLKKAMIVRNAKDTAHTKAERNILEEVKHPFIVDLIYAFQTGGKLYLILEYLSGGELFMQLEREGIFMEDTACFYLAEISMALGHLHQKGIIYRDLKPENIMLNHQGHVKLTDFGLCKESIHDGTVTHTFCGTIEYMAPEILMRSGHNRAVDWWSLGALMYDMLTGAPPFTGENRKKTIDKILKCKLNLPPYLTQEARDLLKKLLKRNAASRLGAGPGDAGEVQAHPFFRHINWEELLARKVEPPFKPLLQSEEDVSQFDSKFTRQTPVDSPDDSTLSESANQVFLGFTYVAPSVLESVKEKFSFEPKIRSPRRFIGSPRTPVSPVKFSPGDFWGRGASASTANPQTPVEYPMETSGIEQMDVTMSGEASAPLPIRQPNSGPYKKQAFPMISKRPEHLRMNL
T4 sequence (P49841 whole entry): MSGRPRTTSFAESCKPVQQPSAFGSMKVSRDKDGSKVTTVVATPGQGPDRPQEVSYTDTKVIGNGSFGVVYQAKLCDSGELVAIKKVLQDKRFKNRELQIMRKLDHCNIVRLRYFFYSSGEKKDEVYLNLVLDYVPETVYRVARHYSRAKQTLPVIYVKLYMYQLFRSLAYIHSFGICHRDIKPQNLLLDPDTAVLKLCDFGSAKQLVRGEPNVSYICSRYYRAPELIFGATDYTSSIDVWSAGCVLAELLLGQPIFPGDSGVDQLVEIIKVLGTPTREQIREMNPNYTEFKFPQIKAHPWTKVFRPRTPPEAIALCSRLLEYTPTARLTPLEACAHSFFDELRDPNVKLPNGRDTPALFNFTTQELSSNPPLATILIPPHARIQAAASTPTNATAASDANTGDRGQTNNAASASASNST

SMILES	VEGF_ADSC\ECFC Angio CD31 TubeArea IC50/EC50 [1] [µM]	WntCondMedia_Alk Phos C2C12 IC50/EC50 [2] [µM]	hNCI-H716 GLP1 Secretion IC50/EC50 (NCI-H716 cells) [µM]	mSTC-1 GLP1 Secretion IC50/EC50 (STC-1 cell line) [µM]	VEGF_ADSC\ECFC Angio Hoechst NucArea IC50/EC50 [3] [µM]	Basal_Viability ATP HCT116 IC50/EC50 (HCT116) [µM]	WntCondMedia_bCatenin C2C12 IC50/EC50 [4] [µM]	GSK3b inh pretreated_Viability ATP HCT116 IC50/EC50 [5] [µM]	hKDR LANCE IC50/EC50 (hKDR) [µM]	hJAK2 LANCE IC50/EC50 (hJAK2) [µM]	hp70S6K1 LANCE IC50/EC50 (hp70S6K1 (RPS6KB1)) [µM]	hGSK3b LANCE IC50/EC50 (hGSK3b) [µM]	hFLT3 LANCE IC50/EC50 (hFLT3) [µM]	Hela CellCycMod PI 2N IC50/EC50 (HeLa cells) [µM]	Hela CellCycMod PI S Phase IC50/EC50 (HeLa cells) [µM]	Hela CellCycMod PI 4N IC50/EC50 (HeLa cells) [µM]	Hela CellCycMod PI MI IC50/EC50 (HeLa cells) [µM]	Hela CellCycMod PI Cell Number IC50/EC50 (HeLa cells) [µM]	also measured
c1ccc2c(c1)Sc1ccccc1N2CC1CN2CCC1CC2 (stereo not shown) [NCGC00183046-03]	9.4389	> 20	> 40	> 40	> 10	> 20	> 20	> 20	–	–	–	–	–	–	–	–	–	–	Basal_Viability ATP SNU-C1 IC50/EC50 (SNU-C1; basal): > 20 µM; Basal_Viability ATP RKO IC50/EC50 (RKO; basal): 8.4586 µM; Basal_Viability ATP HT-29 IC50/EC50 (HT-29; basal): > 20 µM; Basal_Viability ATP Colo 320 IC50/EC50 (Colo320; basal): > 20 µM; Basal_Viability ATP DLD-1 IC50/EC50 (DLD-1; basal): > 20 µM; Basal_Viability ATP SW480 IC50/EC50 (SW480; basal): 5.431 µM
C[C@@]12C(=O)OC(=O)[C@]1(C)C1CCC2O1 [NCGC00025212-08]	1.2254	1.4897	6.6758	13.7125	8.333	–	> 20	–	> 20	> 20	> 20	> 20	> 20	> 10	> 10	> 10	8.4996	1.0094	–
CCCCCCCCCCCCCC[N+](C)(C)C.[Br-] [NCGC00166121-03]	1.9016	> 20	18.5931	> 40	6.684	2.287	> 20	0.754	> 20	> 20	> 20	> 20	> 20	> 10	> 10	> 10	> 10	3.3211	Basal_Viability ATP SNU-C1 IC50/EC50 (SNU-C1): 0.00517 µM; Basal_Viability ATP RKO IC50/EC50 (RKO): 0.1473 µM; Basal_Viability ATP HT-29 IC50/EC50 (HT-29): 1.32 µM; Basal_Viability ATP Colo 320 IC50/EC50 (Colo320): 2.516 µM; Basal_Viability ATP DLD-1 IC50/EC50 (DLD-1): 0.4746 µM; Basal_Viability ATP SW480 IC50/EC50 (SW480): 0.9328 µM
C#C[C@]1(O)CC[C@H]2[C@@H]3CCc4cc(OC5CCCC5)ccc4[C@H]3CC[C@@]21C [NCGC00166146-02]	–	> 20	17.5795	> 40	–	–	> 20	–	–	–	–	–	–	–	–	–	–	–	–
